Assay results as given in US20250169715A1, “USE OF BLINK REFLEX FOR HEADACHE RESPONSE MONITORING AND/OR TREATMENT SELECTION” (priority 2022, published 2025).

Test system: patients with headache/migraine
Assay: Blink reflex measuring device: blink-associated parameters before and after treatment, by treatment modality
Format: in vivo, human
Description: In embodiments, the one or more blink-associated parameters are selected from: • (a) latency, optionally in milliseconds, comprising a time differential between stimulation and eyelid movement, e.g., one or more of upper eyelid or lower eyelid; • (b) differential latency, optionally in milliseconds, comprising a time differential between the start of ipsilateral eye movement and the start of contralateral eye movement; • (c) delta 30, comprising a time difference between ipsilateral eye and contralateral eye movement; • (d) eyelid excursion, optionally in pixels, comprising a distance traveled by the eyelid from the tonic lid position to closed position; • (e) initial lid velocity, optionally in pixels/msec, comprising an average eyelid speed following start of eyelid movement, e.g., the first about 5 frames, the first about 7 frames, or the first about 10 frames; • (f) time to close, optionally in log scale, comprising a time for lid to travel from tonic lid position to the closed position; • (g) time to open, optionally in log scale, comprising a time for lid to travel from closed position back to tonic lid position; • (h) time under threshold, optionally in log scale, comprising a time that the eyelid spends below the threshold position; • (i) number of oscillations, comprising cycles of up and down upper eyelid movement after a stimulated blink; • (j) total blink time, optionally in log scale, comprising a time from start of eyelid movement until it returns to its tonic lid position; • (k) number of blinks; • (l) blink rate, optionally per minute; • (m) area under curve, optionally in pixels; • (n) maximum closing velocity, optionally in […], comprising a maximum velocity during eyelid closure; • (o) maximum opening velocity, optionally in […], comprising a maximum velocity during eyelid opening; and • (p) time to first oscillation, optionally in log scale, comprising the elapsed time between the eyelid returning within threshold of a tonic position for a stimulated blink and the onset of the next unstimulated blink.
In this study, a population of male and female migraine patients are assessed for blink reflex response using the blink reflex measuring device. The patients in this study are tested when they visit the doctor during their routine office visits and/or before and after a doctor prescribed therapeutic intervention.
Blink reflex measuring device was used for collecting multiple blink-associated parameters from patients with headache/migraine before and after treatment undergoing treatment.
Blink reflex measuring device was used for collecting multiple blink-associated parameters from patients with headache/migraine before and after undergoing different treatments. The different treatments were intravenous (IV) ketamine infusion therapy, sphenopalatine ganglion (SPG) block+peripheral nerve block (PNB), and IV ketamine+SPG+PNB. The results are shown in TABLE 2, FIGS. 34-6D and FIG. 7.
TABLES 4-6 show the variable changes based on right and left eye by treatment modality: intravenous (IV) ketamine infusion therapy (TABLE 4); sphenopalatine ganglion (SPG) block+peripheral nerve block (PNB) (TABLE 5); and IV ketamine+SPG+PNB (TABLE 6). It is important to note that whereas FIGS. 34-6D and FIG. 7 show the changes based on treatment modality of each variable and show the overall changes predicated on both right and left eye, TABLES 4-6 break down the variables by right and left eye changes.

[1] = left eye, post treatment, Table 4
[2] = post-treatment average, patients with headache/migraine, by treatment modality
[3] = right eye, post treatment, Table 4

CNC1(c2ccccc2Cl)CCCCC1=O (stereo not drawn) [ketamine]
Blink Rate, Left Eye Post Tx (left eye, post treatment): 89.415 per min | Blinks, Left Eye Post Tx (left eye, post treatment): 5.945 qty | Delta 30, Left Eye Post Tx (left eye, post treatment): 9.328 ms | Differential Latency, Left Eye Post Tx (left eye, post treatment): 4.625 ms | Excursions, Left Eye Post Tx (left eye, post treatment): 91.548 pixels | Latency, Left Eye Post Tx (left eye, post treatment): 53.958 ms | Oscillations Rate, Left Eye Post Tx (left eye, post treatment): 2.293 per min | Oscillations, Left Eye Post Tx (left eye, post treatment): 9.914 no. | Time to Close, Left Eye Post Tx (left eye, post treatment): 27.686 ms | Time to First Oscillation, Left Eye Post Tx (left eye, post treatment): 7.301 Ln ms | Time to Open, Left Eye Post Tx (left eye, post treatment): 286.813 ms | Area Under the Curve, Left Eye Post Tx [1]: 10.250 pixels | Time Under 20, Left Eye Post Tx [1]: 5.228 Ln ms | Blink reflex differences pre and post treatment via Blink Reflex Measuring Device (patients having a migraine, p=0.05): Statistical differences | Area Under Curve, POST-TX AVERAGE [2]: 29522.632 pixels | Blink Rate, POST-TX AVERAGE [2]: 83.490 per min | Blinks, POST-TX AVERAGE [2]: 5.345 qty | Delta 30, POST-TX AVERAGE [2]: 7.435 ms | Differential Latency, POST-TX AVERAGE [2]: 6.145 ms | Excursion, POST-TX AVERAGE [2]: 88.575 pixels | Latency, POST-TX AVERAGE [2]: 49.827 ms | Oscillations, POST-TX AVERAGE [2]: 10.273 no. | Time Under 20, POST-TX AVERAGE [2]: 5.237 Ln ms | Time to Close, POST-TX AVERAGE [2]: 29.930 ms | Time to First Oscillation, POST-TX AVERAGE [2]: 7.412 Ln ms | Time to Open, POST-TX AVERAGE [2]: 307.108 ms | Blink Rate, Right Eye Post Tx (right eye, post treatment): 73.691 per min | Blinks, Right Eye Post Tx (right eye, post treatment): 5.170 qty | Delta 30, Right Eye Post Tx (right eye, post treatment): 5.766 ms | Differential Latency, Right Eye Post Tx (right eye, post treatment): 5.438 ms | Excursions, Right Eye Post Tx (right eye, post treatment): 92.605 pixels | Latency, Right Eye Post Tx (right eye, post treatment): 52.583 ms | Oscillations Rate, Right Eye Post Tx (right eye, post treatment): 1.966 per min | Oscillations, Right Eye Post Tx (right eye, post treatment): 8.606 no. | Time to Close, Right Eye Post Tx (right eye, post treatment): 31.119 ms | Time to First Oscillation, Right Eye Post Tx (right eye, post treatment): 7.517 Ln ms | Time to Open, Right Eye Post Tx (right eye, post treatment): 258.318 ms | Area Under the Curve, Right Eye Post Tx [3]: 10.157 pixels | Time Under 20, Right Eye Post Tx [3]: 5.099 Ln ms
